Legend:
[1] = Experiment 1: administration of arginine (an HGH releaser) and DHEA to a human patient, fasting blood analysis; assay type: in vivo
Description: A human patient was placed on a standardized regimen of nutrient intake for two weeks to establish a baseline prior to ingesting any HGH releasing agents. The evening prior to blood analysis, the same evening meal was consumed (salmon, potato, white wine, vegetables, and Caesar salad). Upon establishing basal values for glucose, insulin, somatomedin C (a marker for growth hormone), DHEA-sulfate, serum lipids, and testosterone, a daily regimen of ingesting 15 grams of arginine just before bedtime was instituted. This regimen was maintained for one week, after which a new baseline was obtained. The evening following this new baseline measurement, DHEA was ingested at a dose of 180 mg (two 90 mg capsules taken simultaneously) at the same time as the arginine. This was continued for one week and the baseline levels of metabolites were rechecked. Finally, for the last week, the arginine dose was administered every other day or at 7.5 g/day while DHEA levels were maintained. Thus, the data points are as follows: • 1: Baseline—begin 15 gm/day administration of arginine; • 2: Day 7—begin 180 mg/day DHEA; • 3: Day 14—begin 15 gm arginine every other day or 7.5 g/day; and • 4: Day 21—end of experiment, no arginine administered the previous night.

[2] = Independent experiment: IGF-1 level after arginine ingestion; assay type: in vivo; conditions: two hours after arginine ingestion; basal 223 ng/ml
Description: This drop was sustained as long as arginine administration was continued. […] Others have also measured somatomedin C levels following arginine ingestion or infusion, and found them to be depressed despite good release of HGH. There is no explanation for this paradox, but it is not material to the fact that HGH is released by arginine and that released HGH does elevate insulin and that DHEA does block this insulin-elevating effect.

[3] = humans, arginine ingestion or infusion; cited from earlier work
[4] = cited from earlier work
[5] = Experiment 2: administration of HGH and DHEA, blood metabolite levels; assay type: in vivo, human
Protocol: As in the first experiment, a standard dietary regimen was followed the evening before each blood sample was collected. HGH administration was initiated one day after a baseline blood sample was drawn. HGH was injected subcutaneously at a dose of approximately 0.018 mg/kg/day, every other night, and was injected near midnight prior to blood collection the following morning. Blood was collected between 10:30 and 11:00 a.m. The second blood sample was taken on day 8, or just over 7 days after beginning HGH injections (4 injections in total to that time). After this second blood sample, a “wash out” period of two days was allowed prior to reinitiating injections according to the same schedule. On day 9, during the HGH “wash out” period, a priming dose of 200 mg of DHEA was taken in divided doses to prepare the patient for the HGH. The second round of injections was done simultaneously with the ingestion of two 100 mg capsules of DHEA, beginning on the evening of day 10. This regimen continued for a total of 4 HGH injections, culminating in the final injection on day 16 and blood sampling on day 17. Two hundred mg of DHEA were taken also on the nights between HGH injections, at the normal time. HGH injections were administered near midnight of the day stated.

Molecule: C[C@]12CC[C@H](O)CC1=CC[C@@H]1[C@@H]2CC[C@]2(C)C(=O)CC[C@@H]12 [DHEA, dehydroepiandrosterone]
- insulin level at point 4 ([1]; day 21, DHEA maintained, arginine every other day, none the night before): returned to basal levels
- fasting serum insulin, % of basal levels ([1]; point 3, day 14, 180 mg/day DHEA with continuing undiminished 15 g/day arginine): 76%

Molecule: N=C(N)NCCC[C@H](N)C(=O)O [arginine]
- insulin determination after only 3 days of arginine ingestion ([1]; 3 days of arginine, data not shown in FIG. 1): normal insulin level
- somatomedin C (IGF-1) levels in response to oral arginine ([1]; FIG. 5, sustained as long as arginine was continued): DROP
- circulating level of DHEA-sulfate, point 4 versus point 3 ([1]; fall in arginine ingestion, no drop in DHEA ingestion): fell
- glucose concentration ([1]; fasting serum, during introduction and tapering off of arginine): no change
- fasting serum insulin rise in response to arginine ingestion ([1]; point 2, day 7, 15 g/day arginine at bedtime, no DHEA): ~50%
- DHEA-sulfate, endogenous change ([1]; point 2 versus point 1, arginine only, no DHEA ingested): noticeable increase
- IGF-1 level after arginine ingestion [2]: 166 ng/mL
- time for insulin to fall back to baseline after arginine [3]: 1 to 2 h
- time to peak of insulin levels after arginine [3]: ≤ 30 min

Molecule: Chromium picolinate
- extension of the life span of animals [4]: 50%

Molecule: HGH: recombinant or natural human growth hormone
- insulin rise prior to DHEA ingestion ([5]; HGH approx. 0.018 mg/kg/day s.c. every other night, day 8): 57%
- DHEA-sulfate change ([5]; HGH only): unaltered
- circulating DHEA levels, depression ([5]; HGH only): a third
- Insulin level ([5]; serum, by stage of experiment, baseline 6.6): 10.4 uU/ml
- IGF-1 level ([5]; serum, by stage of experiment, baseline 27.0): 35.5 µg/dL
- DHEA-sulfate level ([5]; serum, by stage of experiment, baseline 146): 146 µg/dL
- DHEA level ([5]; serum, by stage of experiment, baseline 360): 240 ng/dL

— US7166569B2, “Method for the prevention of transplant rejection” (priority 1994, dated 2007)
